{"source": "paper PMC12892976", "about": "“Alkylation-based optimization of antifungal FPPS inhibitors yields a potent, broad-spectrum lipophilic zoledronate derivative” (mBio, 2025)", "key": {"[1]": {"test_system": "Scedosporium apiospermum", "assay": "checkerboard drug interaction (FICI, MICc)", "assay_type": "cell-based", "method": "(§2) Drug interactions between antifungals and FPPS inhibitors were investigated using a simplified checkerboard diagonal screening method ([45]). […] FICIs were determined according to the Loewe additivity model ([17])."}, "[2]": {"test_system": "Aspergillus flavus biofilms", "assay": "biofilm XTT reduction assay (SIC80, SFICI)", "assay_type": "cell-based", "details": "for SICc / SFICI: Aspergillus flavus", "source_text": "(§1) […]. […] […]."}, "[3]": {"test_system": "Candida glabrata biofilms", "assay": "biofilm XTT reduction assay (SIC80, SFICI)", "assay_type": "cell-based", "details": "for SICc / SFICI: Candida glabrata", "source_text": "as §1"}, "[4]": {"test_system": "Aspergillus fumigatus biofilms", "assay": "biofilm XTT reduction assay (SIC80, SFICI)", "assay_type": "cell-based", "details": "for SICc / SFICI: Aspergillus fumigatus", "source_text": "as §1"}, "[5]": {"test_system": "Saccharomyces cerevisiae biofilms", "assay": "biofilm XTT reduction assay (SIC80, SFICI)", "assay_type": "cell-based", "details": "for SICc / SFICI: Saccharomyces cerevisiae", "method": "(§3) Biofilms of Cryptococcus were seeded in DMEM, and all other species were seeded in RPMI-1640."}, "[6]": {"test_system": "Nannizzia nana", "assay": "MIC broth microdilution (CLSI)", "assay_type": "cell-based", "details": "Nannizzia nana R-133", "method": "(§4) Antifungal susceptibility was determined by broth microdilution according to the CLSI guidelines described in M27-Ed4 ([16])."}, "[7]": {"test_system": "Trichophyton interdigitale", "assay": "MIC broth microdilution (CLSI)", "assay_type": "cell-based", "details": "Trichophyton interdigitale R-234", "method": "as §4"}, "[8]": {"test_system": "Cryptococcus deuterogattii biofilms", "assay": "biofilm XTT reduction assay (SIC80, SFICI)", "details": "for SICc / SFICI: Cryptococcus deuterogattii", "method": "as §3"}, "[9]": {"test_system": "Cryptococcus neoformans biofilms", "assay": "biofilm XTT reduction assay (SIC80, SFICI)", "details": "for SICc / SFICI: Cryptococcus neoformans", "method": "as §3"}, "[10]": {"test_system": "Mucor circinelloides", "assay": "checkerboard drug interaction (FICI, MICc)", "assay_type": "cell-based", "method": "as §2"}, "[11]": {"test_system": "Nannizzia gypsea", "assay": "MIC broth microdilution (CLSI)", "assay_type": "cell-based", "details": "Nannizzia gypsea R-131", "method": "as §4"}, "[12]": {"test_system": "Aspergillus parafelis", "assay": "checkerboard drug interaction (FICI, MICc)", "method": "as §2"}, "[13]": {"test_system": "Cryptococcus bacillisporus", "assay": "MIC broth microdilution (CLSI)", "assay_type": "cell-based", "details": "Cryptococcus bacillisporus NIH179", "method": "as §4"}, "[14]": {"test_system": "Scedosporium apiospermum", "assay": "MIC broth microdilution (CLSI)", "assay_type": "cell-based", "details": "Scedosporium apiospermum 04-16-022-2268", "method": "as §4"}, "[15]": {"test_system": "Trichophyton interdigitale", "assay": "checkerboard drug interaction (FICI, MICc)", "method": "as §2"}}}
{"smiles": "CCCCCCCCCCn1cc[n+](CC(O)(P(=O)(O)O)P(=O)(O)O)c1", "note": "[10-ZOL, Decyl-zoledronate]", "values": [{"measurement": "FICI", "setting": "[1]; 5FC:10-ZOL", "result": 2.25}, {"measurement": "FICI", "setting": "[1]; KET:10-ZOL", "result": 0.53}, {"measurement": "FICI", "setting": "[1]; VOR:10-ZOL", "result": 0.53}, {"measurement": "bisphosphonate MICc", "setting": "[1]; with 5FC", "result": 1}, {"measurement": "bisphosphonate MICc", "setting": "[1]; with AMB", "result": 2}, {"measurement": "bisphosphonate MICc", "setting": "[1]; with CAS", "result": 1}, {"measurement": "bisphosphonate MICc", "setting": "[1]; with FLC", "result": 1}, {"measurement": "bisphosphonate MICc", "setting": "[1]; with ITR", "result": 0.25}, {"measurement": "bisphosphonate MICc", "setting": "[1]; with KET", "result": 0.125}, {"measurement": "bisphosphonate MICc", "setting": "[1]; with VOR", "result": 0.125}, {"measurement": "SICc", "setting": "[2]; FLC:10-ZOL combination", "result": 16, "unit": "µg/mL"}, {"measurement": "SFICI", "setting": "[2]; FLC:10-ZOL", "result": 0.63}, {"measurement": "SICc", "setting": "[2]; ITR:10-ZOL combination", "result": 64, "unit": "µg/mL"}, {"measurement": "SFICI", "setting": "[2]; ITR:10-ZOL", "result": 1.00}, {"measurement": "SICc", "setting": "[2]; KET:10-ZOL combination", "result": 32, "unit": "µg/mL"}, {"measurement": "SFICI", "setting": "[2]; KET:10-ZOL", "result": 0.75}, {"measurement": "SIC80", "setting": "[2]; agent alone, Aspergillus flavus ATCC 204304", "result": 128, "unit": "µg/mL"}, {"measurement": "SICc", "setting": "[3]; FLC:10-ZOL combination", "result": 4, "unit": "µg/mL"}, {"measurement": "SFICI", "setting": "[3]; FLC:10-ZOL", "result": 0.63}, {"measurement": "SICc", "setting": "[3]; ITR:10-ZOL combination", "result": 4, "unit": "µg/mL"}, {"measurement": "SFICI", "setting": "[3]; ITR:10-ZOL", "result": 1.00}, {"measurement": "SICc", "setting": "[3]; KET:10-ZOL combination", "result": 2, "unit": "µg/mL"}, {"measurement": "SFICI", "setting": "[3]; KET:10-ZOL", "result": 0.50}, {"measurement": "SIC80", "setting": "[3]; agent alone, Candida glabrata CBS138", "result": 8, "unit": "µg/mL"}, {"measurement": "SICc", "setting": "[4]; FLC:10-ZOL combination", "result": 64, "unit": "µg/mL"}, {"measurement": "SFICI", "setting": "[4]; FLC:10-ZOL", "result": 0.63}, {"measurement": "SICc", "setting": "[4]; ITR:10-ZOL combination", "result": 32, "unit": "µg/mL"}, {"measurement": "SFICI", "setting": "[4]; ITR:10-ZOL", "result": 0.75}, {"measurement": "SICc", "setting": "[4]; KET:10-ZOL combination", "result": 16, "unit": "µg/mL"}, {"measurement": "SFICI", "setting": "[4]; KET:10-ZOL", "result": 0.38}, {"measurement": "SIC80", "setting": "[4]; agent alone, Aspergillus fumigatus ATCC 204305", "result": 128, "unit": "µg/mL"}, {"measurement": "SICc", "setting": "[5]; FLC:10-ZOL combination", "result": 32, "unit": "µg/mL"}, {"measurement": "SFICI", "setting": "[5]; FLC:10-ZOL", "result": 0.75}, {"measurement": "SICc", "setting": "[5]; ITR:10-ZOL combination", "result": 32, "unit": "µg/mL"}, {"measurement": "SFICI", "setting": "[5]; ITR:10-ZOL", "result": 1.00}, {"measurement": "SICc", "setting": "[5]; KET:10-ZOL combination", "result": 8, "unit": "µg/mL"}, {"measurement": "SFICI", "setting": "[5]; KET:10-ZOL", "result": 0.63}, {"measurement": "SIC80", "setting": "[5]; agent alone, Saccharomyces cerevisiae S288c", "result": 64, "unit": "µg/mL"}, {"measurement": "MIC / MEC", "setting": "[6]", "result": 1, "unit": "µg/mL"}, {"measurement": "MIC / MEC", "setting": "[7]", "result": 1, "unit": "µg/mL"}, {"measurement": "SICc", "setting": "[8]; FLC:10-ZOL combination", "result": 32, "unit": "µg/mL"}, {"measurement": "SFICI", "setting": "[8]; FLC:10-ZOL", "result": 1.00}, {"measurement": "SICc", "setting": "[8]; ITR:10-ZOL combination", "result": 32, "unit": "µg/mL"}, {"measurement": "SFICI", "setting": "[8]; ITR:10-ZOL", "result": 1.00}, {"measurement": "SICc", "setting": "[8]; KET:10-ZOL combination", "result": 16, "unit": "µg/mL"}, {"measurement": "SFICI", "setting": "[8]; KET:10-ZOL", "result": 0.38}, {"measurement": "SIC80", "setting": "[8]; agent alone, Cryptococcus deuterogattii R265", "result": 64, "unit": "µg/mL"}, {"measurement": "SICc", "setting": "[9]; FLC:10-ZOL combination", "result": 32, "unit": "µg/mL"}, {"measurement": "SFICI", "setting": "[9]; FLC:10-ZOL", "result": 0.75}, {"measurement": "SICc", "setting": "[9]; ITR:10-ZOL combination", "result": 16, "unit": "µg/mL"}, {"measurement": "SFICI", "setting": "[9]; ITR:10-ZOL", "result": 0.63}, {"measurement": "SICc", "setting": "[9]; KET:10-ZOL combination", "result": 8, "unit": "µg/mL"}, {"measurement": "SFICI", "setting": "[9]; KET:10-ZOL", "result": 0.56}, {"measurement": "SIC80", "setting": "[9]; agent alone, Cryptococcus neoformans H99", "result": 128, "unit": "µg/mL"}, {"measurement": "FICI", "setting": "[10]; 5FC:10-ZOL", "result": "≥4"}, {"measurement": "FICI", "setting": "[10]; AMB:10-ZOL", "result": 2}, {"measurement": "FICI", "setting": "[10]; CAS:10-ZOL", "result": "≥4"}, {"measurement": "FICI", "setting": "[10]; ITR:10-ZOL", "result": 1.5}, {"measurement": "bisphosphonate MICc", "setting": "[10]; with 5FC", "result": 1}, {"measurement": "bisphosphonate MICc", "setting": "[10]; with AMB", "result": 1}, {"measurement": "bisphosphonate MICc", "setting": "[10]; with CAS", "result": 0.5}, {"measurement": "bisphosphonate MICc", "setting": "[10]; with FLC", "result": 1}, {"measurement": "bisphosphonate MICc", "setting": "[10]; with ITR", "result": 1}, {"measurement": "bisphosphonate MICc", "setting": "[10]; with KET", "result": 0.125}, {"measurement": "bisphosphonate MICc", "setting": "[10]; with VOR", "result": 0.125}, {"measurement": "MIC / MEC", "setting": "[11]", "result": 0.5, "unit": "µg/mL"}, {"measurement": "FICI", "setting": "[12]; 5FC:10-ZOL", "result": "≥4"}, {"measurement": "FICI", "setting": "[12]; CAS:10-ZOL", "result": "≥4"}, {"measurement": "FICI", "setting": "[12]; FLC:10-ZOL", "result": 0.52}, {"measurement": "bisphosphonate MICc", "setting": "[12]; with 5FC", "result": 2}, {"measurement": "bisphosphonate MICc", "setting": "[12]; with AMB", "result": 2}, {"measurement": "bisphosphonate MICc", "setting": "[12]; with CAS", "result": 1}, {"measurement": "bisphosphonate MICc", "setting": "[12]; with FLC", "result": 2}, {"measurement": "bisphosphonate MICc", "setting": "[12]; with ITR", "result": 4}, {"measurement": "bisphosphonate MICc", "setting": "[12]; with KET", "result": 1}, {"measurement": "bisphosphonate MICc", "setting": "[12]; with VOR", "result": 2}, {"measurement": "MIC / MEC", "setting": "[13]", "result": 2, "unit": "µg/mL"}, {"measurement": "MIC / MEC", "setting": "[14]", "result": 4, "unit": "µg/mL"}, {"measurement": "FICI", "setting": "[15]; 5FC:10-ZOL", "result": 1.5}, {"measurement": "FICI", "setting": "[15]; CAS:10-ZOL", "result": 3}, {"measurement": "bisphosphonate MICc", "setting": "[15]; with 5FC", "result": 1}, {"measurement": "bisphosphonate MICc", "setting": "[15]; with AMB", "result": 0.25}, {"measurement": "bisphosphonate MICc", "setting": "[15]; with CAS", "result": 1}, {"measurement": "bisphosphonate MICc", "setting": "[15]; with FLC", "result": 1}, {"measurement": "bisphosphonate MICc", "setting": "[15]; with ITR", "result": 0.125}, {"measurement": "bisphosphonate MICc", "setting": "[15]; with KET", "result": 0.5}]}
